Patent EP2100894A1, “Pyridopyrimidines used as Plk1 (polo-like kinase) inhibitors” (4SC AG, priority 2008, dated 2009)

Target: T1, PIk1 (Homo sapiens, UniProt P53350)
T1 construct: His tag (histidine tag) (N); made in house; host or cells: SF9 insect cells
Test: PIk1 kinase activity inhibition assay (33P incorporation into alpha casein, flash plates)
Assay type: biochemical
Conditions: recombinant N-terminally histidine-tagged PIk1, alpha casein as substrate, 100 nM Li-ATP, 80 minutes at 30°C
Method: The inhibition of PIk1 kinase activity can be measured using recombinant PIk1 protein expressed as an N-terminally histidine-tagged protein in SF9 insect cells and alpha casein as substrate. The PIk1 assay is run in 96 well plates by incubating 50 to 100 ng per well recombinant PIk1, 500 ng per well alpha casein (Sigma, # C-6780) as substrate, 10 µl of compound of invention (test compounds were dissolved as 20 mM solutions in dimethylsulfoxide (DMSO) and subsequently diluted), and 100 nM Li-ATP (including ^33P-ATP) in 100 µl of reaction buffer ([…], pH 7.5; 3 mM MgCl2; 3 mM MnCl2; 3 µM Na-Orthovanadat; 1 mM DTT; 1 µg/ml PEG 8000) for 80 minutes at 30°C. The reactions are terminated by adding 100 µl stopping buffer (2% H3PO4 for 5 minutes) and are washed 3 times with washing solution (0,9% NaCl). Determining ^33P incorporated into the protein substrate alpha casein, the detection is based on the adhesion of the phosphorylated protein to the surface of scintillator-coated flash plates (Perkin Elmer, USA; # SMP-200). Phosphorylation of alpha casein is measured by counting the radioactivity bound to the plate for 60 sec. using a plate reader (Perkin Elmer, USA; Wallac Microbeta). By this method, the IC50 value of the PIk1 inhibition is determined as described above. […]

T1 sequence (P53350 whole entry): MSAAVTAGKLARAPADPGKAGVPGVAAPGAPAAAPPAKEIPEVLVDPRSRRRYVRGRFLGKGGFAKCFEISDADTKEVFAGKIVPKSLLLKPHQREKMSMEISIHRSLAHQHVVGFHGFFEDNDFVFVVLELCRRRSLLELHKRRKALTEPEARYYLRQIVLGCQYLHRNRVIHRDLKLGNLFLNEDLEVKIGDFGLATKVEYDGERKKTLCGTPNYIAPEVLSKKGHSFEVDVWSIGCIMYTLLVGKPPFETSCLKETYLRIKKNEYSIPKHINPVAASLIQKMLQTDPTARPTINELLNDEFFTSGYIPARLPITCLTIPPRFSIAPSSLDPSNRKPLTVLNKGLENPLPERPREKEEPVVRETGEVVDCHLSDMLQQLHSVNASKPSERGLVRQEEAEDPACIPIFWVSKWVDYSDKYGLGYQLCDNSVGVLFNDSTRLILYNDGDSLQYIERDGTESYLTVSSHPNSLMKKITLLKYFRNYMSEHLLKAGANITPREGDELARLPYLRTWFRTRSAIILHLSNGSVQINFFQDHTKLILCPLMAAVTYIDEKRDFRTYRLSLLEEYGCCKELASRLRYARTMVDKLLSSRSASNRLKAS

Row | IC50 [nM] | SMILES
1 | < 1000 | COc1cc(C(=O)NC2CCN(C)CC2)ccc1Nc1ncc2c(cc(OCc3ccccc3)c(=O)n2C)n1 [Example 1, 4-{[7-(benzyloxy)-5-methyl-6-oxo-5,6-dihydropyrido[3,2-d]pyrimidin-2-yl]amino}-3-methoxy-N-(1-methylpiperidin-4-yl)benzamide]
2 | < 100 | C/C=C/c1c(OC)c(=O)n(C)c2cnc(Nc3ccc(C(=O)NC4CCN(C)CC4)cc3OC)nc12 [Example 2, 3-methoxy-4-({7-methoxy-5-methyl-6-oxo-8-[(E)-prop-1-en-1-yl]-5,6-dihydropyrido[3,2-d]pyrimidin-2-yl}amino)-N-(1-methylpiperidin-4-yl)benzamide]
3 | < 100 | COc1cc(C(=O)NC2CCN(C)CC2)ccc1Nc1ncc2c(n1)c(-c1ccccc1)c(OC)c(=O)n2C [Example 3, 3-methoxy-4-[(7-methoxy-5-methyl-6-oxo-8-phenyl-5,6-dihydropyrido[3,2-d]pyrimidin-2-yl)amino]-N-(1-methylpiperidin-4-yl)benzamide]
4 | < 10 | COc1cc(C(=O)NC2CCN(C)CC2)ccc1Nc1ncc2c(n1)c(-c1ccsc1)c(OC)c(=O)n2C [Example 4, 3-methoxy-4-{[7-methoxy-5-methyl-6-oxo-8-(3-thienyl)-5,6-dihydro-pyrido[3,2-d]pyrimidin-2-yl]amino}-N-(1-methylpiperidin-4-yl)benzamide]
5 | < 100 | COc1cc(C(=O)NC2CCN(C)CC2)ccc1Nc1ncc2c(n1)c(-c1cccs1)c(OC)c(=O)n2C [Example 5, 3-methoxy-4-{[7-methoxy-5-methyl-6-oxo-8-(2-thienyl)-5,6-dihydro-pyrido[3,2-d]pyrimidin-2-yl]amino}-N-(1-methylpiperidin-4-yl)benzamide]
6 | < 100 | COc1cc(C(=O)NC2CCN(C)CC2)ccc1Nc1ncc2c(n1)c(C1=CCCC1)c(OC)c(=O)n2C [Example 6, 4-[(8-cyclopent-1-en-1-yl-7-methoxy-5-methyl-6-oxo-5,6-dihydropyrido[3,2-d]pyrimidin-2-yl)amino]-3-methoxy-N-(1-methylpiperidin-4-yl)benzamide]
7 | < 100 | COc1cc(C(=O)NC2CCN(C)CC2)ccc1Nc1ncc2c(cc(OCC3CC3)c(=O)n2C)n1 [Example 7, 4-{[7-(cyclopropylmethoxy)-5-methyl-6-oxo-5,6-dihydropyrido[3,2-d]pyrimidin-2-yl]amino}-3-methoxy-N-(1-methylpiperidin-4-yl)benzamide]
8 | < 100 | COc1cc(C(=O)NC2CCN(C)CC2)ccc1Nc1ncc2c(cc(OCC3CCCC3)c(=O)n2C)n1 [Example 8, 4-{[7-(cyclopentylmethoxy)-5-methyl-6-oxo-5,6-dihydropyrido[3,2-d]pyrimidin-2-yl]amino}-3-methoxy-N-(1-methylpiperidin-4-yl)benzamide]
9 | < 1000 | COc1cc(C(=O)NC2CCN(C)CC2)ccc1Nc1ncc2c(cc(OCC3CCCCC3)c(=O)n2C)n1 [Example 9, 4-{[7-(cyclohexylmethoxy)-5-methyl-6-oxo-5,6-dihydropyrido[3,2-d]pyrimidin-2-yl]amino}-3-methoxy-N-(1-methylpiperidin-4-yl)benzamide]
10 | < 100 | COc1cc(C(=O)NC2CCN(C)CC2)ccc1Nc1ncc2c(n1)c(-c1ccco1)c(OC)c(=O)n2C [Example 10, 4-{[8-(2-furyl)-7-methoxy-5-methyl-6-oxo-5,6-dihydropyrido[3,2-d]pyrimidin-2-yl]amino}-3-methoxy-N-(1-methylpiperidin-4-yl)benzamide]
11 | < 100 | COc1cc(C(=O)NC2CCN(C)CC2)ccc1Nc1ncc2c(n1)c(-c1ccoc1)c(OC)c(=O)n2C [Example 11, 4-{[8-(3-furyl)-7-methoxy-5-methyl-6-oxo-5,6-dihydropyrido[3,2-d]pyrimidin-2-yl]amino}-3-methoxy-N-(1-methylpiperidin-4-yl)benzamide]
12 | < 1000 | COc1cc(C(=O)NC2CCN(C)CC2)ccc1Nc1ncc2c(cc(OCC3CCOC3)c(=O)n2C)n1 (centres unmarked) [Example 12, 3-methoxy-4-{[5-methyl-6-oxo-7-(tetrahydrofuran-3-ylmethoxy)-5,6-dihydropyrido[3,2-d]pyrimidin-2-yl]amino}-N-(1-methylpiperidin-4-yl)benzamide]
13 | < 1000 | COc1cc(C(=O)NC2CCN(C)CC2)ccc1Nc1ncc2c(cc(OCC3CCCO3)c(=O)n2C)n1 (centres unmarked) [Example 13, 3-methoxy-4-{[5-methyl-6-oxo-7-(tetrahydrofuran-2-ylmethoxy)-5,6-dihydropyrido[3,2-d]pyrimidin-2-yl]amino}-N-(1-methylpiperidin-4-yl)benzamide]
14 | < 100 | COc1cc(C(=O)NC2CCN(C)CC2)ccc1Nc1ncc2c(n1)c(C1CCCC1)c(OC)c(=O)n2C [Example 14, 4-[(8-cyclopentyl-7-methoxy-5-methyl-6-oxo-5,6-dihydropyrido[3,2-d]pyrimidin-2-yl)amino]-3-methoxy-N-(1-methylpiperidin-4-yl)benzamide]
15 | < 1000 | COc1cc(C(=O)NC2CCN(C)CC2)ccc1Nc1ncc2c(n1)c(C1=C(C)CCC1)c(OC)c(=O)n2C [Example 15, 3-methoxy-4-{[7-methoxy-5-methyl-8-(2-methylcyclopent-1-en-1-yl)-6-oxo-5,6-dihydropyrido[3,2-d]pyrimidin-2-yl]amino}-N-(1-methylpiperidin-4-yl)benzamide]
16 | < 1000 | COc1cc(C(=O)NC2CCN(C)CC2)ccc1Nc1ncc2c(n1)c(Cl)c(OC)c(=O)n2C [Example 16, 4-[(8-chloro-7-methoxy-5-methyl-6-oxo-5,6-dihydropyrido[3,2-d]pyrimidin-2-yl)amino]-3-methoxy-N-(1-methylpiperidin-4-yl)benzamide]
17 | < 1000 | COc1cc(C(=O)NC2CCN(C)CC2)ccc1Nc1ncc2c(n1)c(C1=C(C)CCCC1)c(OC)c(=O)n2C [Example 17, 3-methoxy-4-{[7-methoxy-5-methyl-8-(2-methylcyclohex-1-en-1-yl)-6-oxo-5,6-dihydropyrido[3,2-d]pyrimidin-2-yl]amino}-N-(1-methylpiperidin-4-yl)benzamide]
18 | < 100 | C/C=C/c1c(OCC)c(=O)n(C)c2cnc(Nc3ccc(C(=O)NC4CCN(C)CC4)cc3OC)nc12 [Example 18, 4-({7-ethoxy-5-methyl-6-oxo-8-[(1E)-prop-1-en-1-yl]-5,6-dihydropyrido[3,2-d]pyrimidin-2-yl}amino)-3-methoxy-N-(1-methylpiperidin-4-yl)benzamide]
19 | < 100 | COc1cc(C(=O)NC2CCN(C)CC2)ccc1Nc1ncc2c(n1)c(C1CC1)c(OC)c(=O)n2C [Example 19, 4-[(8-cyclopropyl-7-methoxy-5-methyl-6-oxo-5,6-dihydropyrido[3,2-d]pyrimidin-2-yl)amino]-3-methoxy-N-(1-methylpiperidin-4-yl)benzamide]
20 | < 100 | C/C=C/c1c(OC)c(=O)n(C)c2cnc(Nc3ccc(C(=O)NCc4cncn4C)cc3OC)nc12 [Example 20, 3-methoxy-4-({7-methoxy-5-methyl-6-oxo-8-[(1E)-prop-1-en-1-yl]-5,6-dihydropyrido[3,2-d]pyrimidin-2-yl}amino)-N-[(1-methyl-1H-imidazol-5-yl)methyl]benzamide]
21 | < 1000 | COc1cc(C(=O)NC2CCN(C)CC2)ccc1Nc1ncc2c(cc(OC)c(=O)n2C)n1 [Example 21, 3-methoxy-4-[(7-methoxy-5-methyl-6-oxo-5,6-dihydropyrido[3,2-d]pyrimidin-2-yl)amino]-N-(1-methylpiperidin-4-yl)benzamide]
22 | < 100 | C=C(C)c1c(OC)c(=O)n(C)c2cnc(Nc3ccc(C(=O)NC4CCN(C)CC4)cc3OC)nc12 [Example 22, 4-[(8-isopropenyl-7-methoxy-5-methyl-6-oxo-5,6-dihydropyrido[3,2-d]pyrimidin-2-yl)amino]-3-methoxy-N-(1-methylpiperidin-4-yl)benzamide]
23 | < 1000 | COc1cc(C(=O)NC2CCN(C)CC2)ccc1Nc1ncc2c(n1)c(CC1=CCOC1)c(OC)c(=O)n2C [Example 23, 4-{[8-(2,5-dihydrofuran-3-ylmethyl)-7-methoxy-5-methyl-6-oxo-5,6-dihydropyrido[3,2-d]pyrimidin-2-yl]amino}-3-methoxy-N-(1-methylpiperidin-4-yl)benzamide]
24 | < 1000 | COc1cc(C(=O)NC2CCN(C)CC2)ccc1Nc1ncc2c(n1)c(C(C)C)c(OC)c(=O)n2C [Example 24, 4-[(8-isopropyl-7-methoxy-5-methyl-6-oxo-5,6-dihydropyrido[3,2-d]pyrimidin-2-yl)amino]-3-methoxy-N-(1-methylpiperidin-4-yl)benzamide]
25 | < 1000 | C/C=C/c1c(OC)c(=O)n(C)c2cnc(Nc3ccc(C(=O)NC4CCN(CC)CC4)cc3OC)nc12 [Example 25, N-(1-ethylpiperidin-4-yl)-3-methoxy-4-({7-methoxy-5-methyl-6-oxo-8-[(1E)-prop-1-en-1-yl]-5,6-dihydropyrido[3,2-d]pyrimidin-2-yl}amino)benzamide]
26 | < 100 | C/C=C/c1c(OC)c(=O)n(C)c2cnc(Nc3ccc(C(=O)NCC4CCN(C)CC4)cc3OC)nc12 [Example 26, 3-methoxy-4-({7-methoxy-5-methyl-6-oxo-8-[(1E)-prop-1-en-1-yl]-5,6-dihydropyrido[3,2-d]pyrimidin-2-yl}amino)-N-[(1-methylpiperidin-4-yl)methyl]benzamide]
